Measured values published in paper PMC9822769, “The Strange Case: The Unsymmetric Cisplatin-Based Pt(IV) Prodrug [Pt(CH3COO)Cl2(NH3)2(OH)] Exhibits Higher Cytotoxic Activity with respect to Its Symmetric Congeners due to Carrier-Mediated Cellular Uptake” (Bioinorganic Chemistry and Applications, 2022).

What was measured:
HCT 116 = assay: Resazurin reduction cell viability assay, HCT 116; assay type: cell-based, human; conditions: 72 h of treatment; mean ± sd
Experimental: (§1) The compounds under investigation were tested on a panel of commercial human cancer cell lines: ovarian endometrioid adenocarcinoma A2780 (ICLC HTL98008), its cisplatin-resistant variant A2780cisR (ECACC 93112517), colon carcinoma HCT 116 (ECACC 91091005), breast invasive ductal carcinoma MCF7 (ECACC 86012803), embryonal carcinoma NTERA-2 clone D1 (also known as NT2/D1, ICLC HTL97025), and lung adenocarcinoma A549 (ICLC HTL03001). Furthermore, a cell line derived from the pleural effusion of a patient with untreated malignant pleural mesothelioma (MPM) was added to the panel, namely, MM98 (sarcomatoid phenotype). Commercial cells were purchased from the European Collection of Authenticated Cell Cultures (ECACC, UK) or the Interlab Cell Line Collection (ICLC, Genoa, Italy), while the MM98 cell line was obtained from the Pathology Unit of the National Hospital of Alessandria (Italy).
(§2) The following media were used to grow the cells: RPMI 1640 (for A2780, A2780cisR, NT2/D1, and A549 cells), DMEM (for MCF7 cells), DMEM supplemented with nonessential amino acids (for MM98 cells), and McCoy's 5A (for HCT 116 cells). All media contained L-glutamine (2 mM) and were added with penicillin (100 IU·mL^−1), streptomycin (100 mg·L^−1), and 10% heat inactivated FBS. To maintain resistance in A2780cisR cells, cisplatin (1 μM) was added to the medium every two passages.
(§3) Continuous treatments (CT) were carried out at 37°C in a humidified chamber with 5% CO2. Cisplatin was dissolved in a 0.9% w/v NaCl aqueous solution and brought to pH = 3 with HCl (final stock concentration 1 mM). The Pt(IV) Complexes 1–3 were dissolved in milliQ water (final stock concentration 5 mM) and stored at −20°C. The stock concentration was confirmed with inductively coupled plasma-mass spectrometry (ICP-MS) measurements. The mother solutions were diluted in a complete medium to the required concentration.
(§4) To assess the growth inhibition of the compounds under investigation, a cell viability test (i.e., the resazurin reduction assay) was used. […] At the end of the treatment (72 h), viability was evaluated with 100 μg·mL^−1 resazurin (Acros Chemicals, France) in a fresh medium for 1 h at 37°C, and the amount of the reduced product, resorufin, was measured by fluorescence (excitation λ = 535 nm, emission λ = 595 nm) with a Tecan Infinite F200Pro plate reader (Tecan, Austria). In each experiment, cells were challenged with drug candidates at different concentrations, and the final data were calculated from at least three replicates of the same experiment performed in triplicate. The fluorescence of 8 wells containing a medium without cells was used as a blank. Fluorescence data were normalized to 100% cell viability for nontreated cells. […]

MCF-7 = assay: Resazurin reduction cell viability assay, MCF-7; assay type: cell-based, human; conditions: 72 h of treatment; mean ± sd
Experimental: as §1, §2, §3, §4

[1] = set-up: method as in PMID 32296997; conditions: vs. Ag/AgCl, 3M KCl, glassy carbon electrode, scan rate 0.2 V·s^−1; cited from earlier work
[2] = set-up: method as in PMID 32296997; conditions: 37°C, ten-fold excess of ascorbic acid; cited from earlier work
[3] = tested on: panel of human cancer cell lines; assay: Antiproliferative activity, panel of human cancer cell lines (average); assay type: cell-based; conditions: 72 h; for IC50: wild cell panel
Experimental: as §1
The following media were used to grow the cells: RPMI 1640 (for A2780, A2780cisR, NT2/D1, and A549 cells), DMEM (for MCF7 cells), DMEM supplemented with nonessential amino acids (for MM98 cells), and McCoy's 5A (for HCT 116 cells). […]
as §4

A2780cisR cells = assay: Cellular Pt accumulation (accumulation ratio) in A2780cisR cells; assay type: cell-based, human; conditions: 4 h CT, 10 μM
Experimental: A2780 and A2780cisR cells were seeded in 10 mm Petri dishes and challenged with complexes under investigation (10 μM) in a complete medium for 4 h. At the end of the exposure, cells were washed three times with PBS, detached from Petri dishes using 0.05% trypsin 1x + 2% EDTA (HyClone, Thermo Fisher), and harvested in a completely fresh medium. An automatic cell counting device (Countess®, Life Technologies) was used to measure the number and mean diameter of each cell necessary to calculate the mean cellular (spherical) volume.
For the analysis of Pt accumulation, cells were transferred to a borosilicate glass tube and centrifuged at 1100 rpm for 5 min at room temperature. […]
The determination of the platinum content was performed by ICP-MS (Thermo Optek X Series 2). […] The instrument settings were optimized to produce the highest platinum sensitivity, and the most abundant isotopes of Pt and In (used as an internal standard) were quantified at m/z 195 and 115, respectively.
The quantity of Pt found in cells and normalized on cell number (cellular Pt accumulation) was expressed as ng of Pt per 10^6 cells. The mean cellular volume, calculated from the actual mean cell diameter measured for each sample (about 12 μm), was used to obtain the volume of 10^6 cells and, finally, the intracellular Pt concentration. […]

Row | SMILES | IC50 (HCT 116) [µM] | IC50 (MCF-7) [µM] | E p (reduction peak potential) [1] [V] | t ½ [2] [min] | potency, times higher than those of 1 and 3 ([3]; panel of human cancer cell lines) | IC50 [3] [µM] | Pt accumulation (AR) in A2780cisR compared with A2780 (A2780cisR cells)
1 | CC(=O)[O][Pt]([NH2])([NH2])([Cl])([Cl])[O]C(C)=O [Complex 3, (OC-6-33)-diamminedichloridodiacetatoplatinum(IV)] | 55.3 ± 1.69 | > 100 | −0.486 | 528 |  |  | 
2 | CC(=O)[O][Pt]([OH])([Cl])[Cl].N.N [Complex 2, (OC-6-44)-acetatodiamminedichloridohydroxidoplatinum(IV)] | 1.46 ± 0.02 | 8.86 ± 3.45 | −0.618 | 20.5 | 10–100 times | 2.91 | 
3 | N.N.[OH][Pt]([OH])([Cl])[Cl] [Complex 1, (OC-6-33)-diamminedichloridodihydroxidoplatinum(IV)] | 22.9 ± 3.89 | 78.1 ± 5.6 | −0.815 | 8.6 |  |  | 
4 | N.N.[Cl][Pt][Cl] [Cisplatin, (SP-4-2)-diamminedichloridoplatinum(II)] | 2.3 ± 0.3 | 6.46 ± 0.91 |  |  |  | 2.72 | much lower amounts of Pt than A2780
